In patent US11401277B2, “Anti-bacterial heterocyclic compounds and their synthesis” (Bugworks Research, Inc., priority 2017, dated 2022):
pIC50: −log10 of the molar value. Converted amounts (≈) assume the structure as drawn.

Experiments:
[1] = molecular target: E. coli topoisomerase IV (Escherichia coli, UniProt P0AFI2+P20083); assay: biochemical; settings: gel based decatenation assay; read-out: E. coli Topo IV IC50
[2] = tested on: S. aureus ATCC 29213; assay: MIC studies in LB Media; assay type: cell-based; settings: Staphylococcus aureus, ATCC29213, MIC = 90% inhibition of growth, read-out: Minimum Inhibitory Concentration in LB Media, S. au
Protocol: (§1) Bacterial cultures that were stored as glycerol stocks at −80° C. were sub cultured on LB agar plates to obtain isolated colonies. A single colony of each strain was cultured in LB broth. The cultures were incubated at 37° C., 200 rpm till they reach an optical density (OD at 600 nm) of 0.8 to 1. […] Test compounds were dissolved in dimethyl sulfoxide (DMSO) to a stock concentration of 4 mg/ml. A two-fold dilution series of this DMSO stock was prepared in a 96 well V bottom microtitre plate from rows A to H. A 3 μL volume of these dilutions were transferred to a 96-well flat bottom microtitre assay plate. Controls to monitor the effects of DMSO and media sterility were included. Each well was inoculated with 150 μL of the above diluted culture. The plates were incubated at 37° C. overnight in a humidified incubator. The following morning, the plates were read using a Spectrophotometer at 600 nm wavelength.

[3] = tested on: E. faecalis ATCC 29212; assay: MIC studies in LB Media; assay type: cell-based; settings: Enterococcus faecalis, ATCC29212, read-out: Minimum Inhibitory Concentration in LB Media, E. fa
Protocol: as §1

[4] = tested on: E. coli ATCC 25922; assay: MIC studies in LB Media; assay type: cell-based; settings: Escherichia coli, ATCC25922, read-out: Minimum Inhibitory Concentration in LB Media, E. co
Protocol: as §1

[5] = tested on: P. aurigenosa ATCC 27853; assay: MIC studies in LB Media; assay type: cell-based; settings: Pseudomonas aeruginosa, ATCC27853, read-out: Minimum Inhibitory Concentration in LB Media, P. ae
Protocol: as §1

[6] = tested on: Proteus mirabilis ATCC 43071; assay: MIC studies in LB Media; assay type: cell-based; settings: ATCC43071, read-out: Minimum Inhibitory Concentration in LB Media, P. mi
Protocol: as §1

[7] = tested on: Morganella morganii ATCC 25830; assay: MIC studies in LB Media; assay type: cell-based; settings: ATCC25830, read-out: Minimum Inhibitory Concentration in LB Media, M. mo
Protocol: as §1

[8] = tested on: Citrobacter freundii ATCC 43864; assay: MIC studies in LB Media; assay type: cell-based; settings: ATCC43864, read-out: Minimum Inhibitory Concentration in LB Media, C. fr
Protocol: as §1

[9] = tested on: K. pneumoniae ATCC 13883; assay: MIC studies in LB Media; assay type: cell-based; settings: Klebsiella pneumoniae, ATCC13883, read-out: Minimum Inhibitory Concentration in LB Media, K. pn
Protocol: as §1

[10] = tested on: Enterobacter cloacae ATCC 13047; assay: MIC studies in LB Media; assay type: cell-based; settings: ATCC13047, read-out: Minimum Inhibitory Concentration in LB Media, E. cl
Protocol: as §1

[11] = tested on: A. baumannii ATCC 19606; assay: MIC studies in LB Media; assay type: cell-based; settings: Acinetobacter baumannii, ATCC19606, read-out: Minimum Inhibitory Concentration in LB Media, A. ba
Protocol: as §1

[12] = molecular target: E. coli DNA gyrase (Escherichia coli, UniProt P0AES4+P0AES6); assay: biochemical; settings: gel based supercoiling assay; read-out: E. coli DNA Gyrase IC50
E. coli DNA gyrase, sequence (P0AES4 whole entry, one chain of several): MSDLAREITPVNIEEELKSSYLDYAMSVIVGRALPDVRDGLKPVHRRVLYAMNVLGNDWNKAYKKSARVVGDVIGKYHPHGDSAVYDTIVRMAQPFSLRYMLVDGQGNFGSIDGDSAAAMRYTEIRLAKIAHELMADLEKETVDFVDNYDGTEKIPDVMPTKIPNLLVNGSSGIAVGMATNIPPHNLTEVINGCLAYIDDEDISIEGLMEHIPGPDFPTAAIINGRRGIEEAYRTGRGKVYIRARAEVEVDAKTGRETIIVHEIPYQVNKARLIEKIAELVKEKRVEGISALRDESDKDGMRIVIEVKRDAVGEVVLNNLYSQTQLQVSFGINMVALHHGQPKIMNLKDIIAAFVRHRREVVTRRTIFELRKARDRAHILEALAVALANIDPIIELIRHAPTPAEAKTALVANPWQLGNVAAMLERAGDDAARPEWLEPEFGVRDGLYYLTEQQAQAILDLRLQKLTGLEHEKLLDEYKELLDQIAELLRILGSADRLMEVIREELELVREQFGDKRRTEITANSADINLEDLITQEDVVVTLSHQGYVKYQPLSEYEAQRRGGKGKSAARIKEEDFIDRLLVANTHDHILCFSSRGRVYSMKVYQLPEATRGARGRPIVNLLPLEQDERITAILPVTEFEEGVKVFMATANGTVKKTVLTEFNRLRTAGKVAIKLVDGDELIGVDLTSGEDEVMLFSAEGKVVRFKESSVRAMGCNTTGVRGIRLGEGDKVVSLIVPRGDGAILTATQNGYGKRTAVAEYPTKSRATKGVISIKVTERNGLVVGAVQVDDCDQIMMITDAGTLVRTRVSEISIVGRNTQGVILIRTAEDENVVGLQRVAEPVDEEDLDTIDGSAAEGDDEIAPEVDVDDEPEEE

[13] = molecular target: T1, hERG potassium channel (Homo sapiens, UniProt Q12809); assay: hERG inhibition assay, QPatch HTX automated electrophysiology; assay type: cell-based; settings: CHO cell line expressing hERG; whole-cell patch clamp, room temperature
T1 construct: Chinese Hamster Ovary cell line stably expressing the full-length hERG potassium channel; expressed in transfected cells
T1 sequence (Q12809 whole entry): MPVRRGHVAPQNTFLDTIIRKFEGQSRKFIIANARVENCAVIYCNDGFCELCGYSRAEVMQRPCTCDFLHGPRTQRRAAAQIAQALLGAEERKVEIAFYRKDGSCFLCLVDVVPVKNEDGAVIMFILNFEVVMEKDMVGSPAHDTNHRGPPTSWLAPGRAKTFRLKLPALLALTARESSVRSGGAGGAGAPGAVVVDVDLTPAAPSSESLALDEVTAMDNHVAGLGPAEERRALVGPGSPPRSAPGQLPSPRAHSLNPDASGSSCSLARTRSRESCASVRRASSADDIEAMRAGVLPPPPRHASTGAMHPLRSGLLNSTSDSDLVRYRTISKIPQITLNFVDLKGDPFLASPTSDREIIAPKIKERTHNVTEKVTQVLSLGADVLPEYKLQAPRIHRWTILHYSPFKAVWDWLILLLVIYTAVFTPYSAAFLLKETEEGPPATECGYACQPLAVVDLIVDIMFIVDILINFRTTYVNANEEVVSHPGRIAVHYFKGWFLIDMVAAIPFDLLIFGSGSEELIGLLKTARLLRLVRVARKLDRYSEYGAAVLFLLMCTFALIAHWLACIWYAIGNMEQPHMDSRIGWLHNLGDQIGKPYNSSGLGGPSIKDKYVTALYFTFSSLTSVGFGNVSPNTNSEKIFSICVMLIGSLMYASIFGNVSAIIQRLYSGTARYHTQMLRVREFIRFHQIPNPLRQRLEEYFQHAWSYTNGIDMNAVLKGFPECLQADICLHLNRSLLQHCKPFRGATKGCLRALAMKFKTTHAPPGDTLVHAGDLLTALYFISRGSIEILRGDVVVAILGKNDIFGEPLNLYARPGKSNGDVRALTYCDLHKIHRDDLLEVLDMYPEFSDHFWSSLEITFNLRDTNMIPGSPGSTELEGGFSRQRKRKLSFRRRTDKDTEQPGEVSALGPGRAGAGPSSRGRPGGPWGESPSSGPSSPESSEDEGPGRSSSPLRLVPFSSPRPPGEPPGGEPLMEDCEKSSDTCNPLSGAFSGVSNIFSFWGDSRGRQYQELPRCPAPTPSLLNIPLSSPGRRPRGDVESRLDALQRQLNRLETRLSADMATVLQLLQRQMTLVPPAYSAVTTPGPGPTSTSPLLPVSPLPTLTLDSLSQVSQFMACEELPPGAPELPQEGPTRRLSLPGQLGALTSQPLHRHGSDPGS
Protocol: The compounds were tested for inhibition of the human ether a go-go related gene (hERG) K+ channel using QPatch HTX automated electrophysiology.
Compounds of Formula I were solubilised to 100 mM in DMSO before dilution in HBPS to 300 μM.
Electrophysiological recordings were made from a Chinese Hamster Ovary cell line stably expressing the full-length hERG potassium channel. Single cell ionic currents were measured in whole-cell patch clamp configuration at room temperature (21-23° C.) using the QPatch HTX platform (Sophion). Intracellular solution contained (mM): 120 KF, 20 KCl, 10 EGTA, 10 HEPES and was buffered to pH 7.3. […] Cells were clamped at a holding potential of −80 mV. Cells were stepped to +20 mV for 2 s then −40 mV for 3 s before returning to the holding potential. This sweep was repeated 10 times at 10 s intervals. hERG currents were measured from the tail step and referenced to the holding current. Compounds were then incubated for 2 minutes prior to a second measurement of ion channel current using an identical pulse train.

E. coli topoisomerase IV, sequence (P20083 whole entry): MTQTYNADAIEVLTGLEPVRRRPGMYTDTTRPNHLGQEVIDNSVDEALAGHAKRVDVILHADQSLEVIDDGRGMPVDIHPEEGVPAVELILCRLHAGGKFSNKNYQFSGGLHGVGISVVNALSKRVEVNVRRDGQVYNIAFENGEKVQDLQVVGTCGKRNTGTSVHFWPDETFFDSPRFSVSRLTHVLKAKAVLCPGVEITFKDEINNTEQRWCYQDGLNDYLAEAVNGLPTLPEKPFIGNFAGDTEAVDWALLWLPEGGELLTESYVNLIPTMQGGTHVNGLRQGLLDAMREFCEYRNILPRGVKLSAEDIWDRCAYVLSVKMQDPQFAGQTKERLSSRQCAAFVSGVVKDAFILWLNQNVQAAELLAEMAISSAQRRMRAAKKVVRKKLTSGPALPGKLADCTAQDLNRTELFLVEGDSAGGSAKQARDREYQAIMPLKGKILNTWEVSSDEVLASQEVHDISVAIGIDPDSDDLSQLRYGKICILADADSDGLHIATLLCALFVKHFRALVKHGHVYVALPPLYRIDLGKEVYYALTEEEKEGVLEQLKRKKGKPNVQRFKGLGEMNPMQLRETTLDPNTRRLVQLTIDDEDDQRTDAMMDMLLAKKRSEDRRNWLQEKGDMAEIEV
E. coli topoisomerase IV, sequence (P0AFI2 whole entry): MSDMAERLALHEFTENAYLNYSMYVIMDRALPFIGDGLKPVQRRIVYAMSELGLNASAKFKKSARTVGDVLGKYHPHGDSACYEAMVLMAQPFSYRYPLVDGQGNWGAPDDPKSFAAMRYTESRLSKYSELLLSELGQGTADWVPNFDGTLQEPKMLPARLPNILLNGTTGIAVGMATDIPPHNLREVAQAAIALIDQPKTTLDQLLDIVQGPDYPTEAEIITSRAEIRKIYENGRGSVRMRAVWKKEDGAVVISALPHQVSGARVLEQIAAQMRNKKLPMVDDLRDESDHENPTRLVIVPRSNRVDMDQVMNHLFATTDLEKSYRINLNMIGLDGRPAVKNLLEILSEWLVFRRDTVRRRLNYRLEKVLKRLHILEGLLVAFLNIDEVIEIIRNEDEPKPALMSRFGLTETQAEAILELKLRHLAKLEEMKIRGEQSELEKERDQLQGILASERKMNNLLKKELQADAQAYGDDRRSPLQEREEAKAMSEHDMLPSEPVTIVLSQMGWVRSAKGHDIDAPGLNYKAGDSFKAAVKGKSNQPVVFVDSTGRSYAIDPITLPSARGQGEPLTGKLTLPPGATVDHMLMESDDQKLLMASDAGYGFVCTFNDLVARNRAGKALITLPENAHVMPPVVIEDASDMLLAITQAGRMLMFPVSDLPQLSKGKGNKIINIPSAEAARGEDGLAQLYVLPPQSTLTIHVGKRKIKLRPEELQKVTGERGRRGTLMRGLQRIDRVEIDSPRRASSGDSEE

Row | Structure (SMILES) | pIC50 [1] | MIC [2] | MIC [3] | MIC [4] | MIC [5] | MIC [6] | MIC [7] | MIC [8] | MIC [9] | MIC [10] | MIC [11] | pIC50 [12] | pIC50 [13]
1 | Cn1c(=O)ccc2nccc(OCCNC[C@H]3CN(c4ccc5c(n4)NC(=O)CO5)C(=O)O3)c21 [Compound 1, (S)-6-(5-(((2-((5-methyl-6-oxo-5,6-dihydro-1,5-naphthyridin-4-yl)oxy)ethyl)amino)methyl)-2-oxooxazolidin-3-yl)-2H-pyrido[3,2-b][1,4]oxazin-3(4H)-one] | > 6.60 | 0.25 µg/mL (≈ 0.536 µM) | 1 µg/mL (≈ 2.14 µM) | 0.5 µg/mL (≈ 1.07 µM) | 4 µg/mL (≈ 8.58 µM) | 16 µg/mL (≈ 34.3 µM) | 2 µg/mL (≈ 4.29 µM) | 1 µg/mL (≈ 2.14 µM) | 1 µg/mL (≈ 2.14 µM) | 8 µg/mL (≈ 17.2 µM) | 2 µg/mL (≈ 4.29 µM) | > 6.60 | < 4.00
2 | Cn1c(=O)cnc2ccc(F)c(OCCNC[C@H]3CN(c4cnc5c(n4)NC(=O)CS5)C(=O)O3)c21 [Compound 10, (S)-5-(((2-((6-fluoro-4-methyl-3-oxo-3,4-dihydroquinoxalin-5-yl)oxy)ethyl)amino)methyl)-3-(3-oxo-3,4-dihydro-2H-pyrazino[2,3-b][1,4]thiazin-6-yl)oxazolidin-2-one] | > 6.43 | ≤ 0.003 µg/mL | 0.025 µg/mL (≈ 0.0499 µM) | 0.025 µg/mL (≈ 0.0499 µM) | 0.25 µg/mL (≈ 0.499 µM) | 0.125 µg/mL (≈ 0.249 µM) | 0.025 µg/mL (≈ 0.0499 µM) | 0.025 µg/mL (≈ 0.0499 µM) | 0.025 µg/mL (≈ 0.0499 µM) | 0.05 µg/mL (≈ 0.0997 µM) | 0.013 µg/mL (≈ 0.0259 µM) | 7.66 | 4.72
3 | CC(COc1c(F)ccc2ccc(=O)n(C)c12)NC[C@H]1CN(c2cnc3c(n2)NC(=O)CO3)C(=O)O1 (stereo partly drawn) [Compound 4, 6-((5S)-5-(((1-((7-fluoro-1-methyl-2-oxo-1,2-dihydroquinolin-8-yl)oxy)propan-2-yl)amino)methyl)-2-oxooxazolidin-3-yl)-2H-pyrazino[2,3-b][1,4]oxazin-3(4H)-one] | > 6.46 | 0.06 µg/mL (≈ 0.12 µM) | 0.125 µg/mL (≈ 0.251 µM) | 0.25 µg/mL (≈ 0.502 µM) | 2 µg/mL (≈ 4.01 µM) | 2 µg/mL (≈ 4.01 µM) | 1 µg/mL (≈ 2.01 µM) | 0.5 µg/mL (≈ 1 µM) | 0.25 µg/mL (≈ 0.502 µM) | 0.5 µg/mL (≈ 1 µM) | 0.25 µg/mL (≈ 0.502 µM) | 7.52 | 4.44
